The series can be described thus: Cytotoxicity, CellTiter-Glo, foreskin fibroblasts. Format: cell-based. The settings on record: human, primary foreskin fibroblasts, read-out: Cytotoxicity CC50, Foreskin Fibroblast. The method, then: The cytotoxicity of compounds was determined in peripheral blood mononuclear cells (PBMCs) and primary human foreskin fibroblasts, both purchased frozen from AllCells, Inc, CA. Cells were incubated with test compound at various concentrations in triplicate for a period of 3 days in 96-well plates. The cytotoxicity or inhibition of cell proliferation was determined using a standard CellTiter-Glo® Luminescent Cell Viability Assay (Promega, Madison, WI) that measures total cellular adenosine triphosphate (ATP) concentration as a function of cell viability. In addition, cytotoxicity assays were also performed in HeLa cells in parallel with VEGF ELISA to ensure that the inhibition of VEGF production in HeLa cells was not due to cytotoxicity.
(In ATP-based viability assays light output follows the ATP content of the culture.)

This note sets out measurements from publication PMC5161367, “Discovery of Novel Small Molecule Inhibitors of VEGF Expression in Tumor Cells Using a Cell-Based High Throughput Screening Platform” (PLoS ONE, 2016).

Each structure is given as a SMILES string. A value given as a limit tells only on which side of the number the result lay.

In general, CC50 refers to the concentration at which the toxic effect on the cells reaches its halfway point. Take `Brc1ccc2[nH]c3c(c2c1)CCCC3n1cccc1` (stereo not shown) [PTC-858, 6-bromo-1-(1H-pyrrol-1-yl)-2,3,4,9-tetrahydro-1H-carbazole]: the CC50 at 72 hours is over 30 µM.
